Results published in US12496361B2, “Imaging compounds for detecting or imaging senescent cells” (University of Dundee, priority 2023, dated 2025).

Experiments:
HBEC CDC6 Tet-ON cells [1] = experiment: Detection of senescent cells in cell cultures by fluorescent microscopy; type: cell-based
Experimental: (§1) 1-Ethyl-2-((E)-2-((E)-3-((E)-2-(1-ethyl-3,3-dimethylindolin-2-ylidene)ethylidene)-2-((4-(4-((2-methyl-6-((E)-(4-((E)-phenyldiazenyl)naphthalen-1-yl)diazenyl)-2,3-dihydro-1H-perimidin-2-yl)methoxy)-4-oxobutanamido)butyl)amino)cyclohex-1-en-1-yl)vinyl)-3,3-dimethyl-3H-indol-1-ium iodide (15, Scheme 2, Example 2) was used to detect senescent cells in cell spreads using fluorescent microscopy (FIG. 1).
(§2) Li-Fraumeni-p21^WAF1/Cip1 or HBEC-CDC6 Tet-ON cellular systems were grown on cover slips and collected before and after the mentioned respective treatments for induction of senescence. Cover slips were treated as follows: • a) Cell spreads, immobilized preferably on a microscopy coverslip, are fixed in 4% paraformaldehyde (PFA) for 10 minutes at 4° C.; • b) Wash with PBS; • c) Cell membrane permeabilization: Immerse coverslips in solution of 0.3% Triton-X 100 diluted in PBS for 15 minutes; • d) Wash with PBS; • e) Apply compound of formula I on cells for 10 minutes in dark conditions; • f) Wash 3 times with fresh wash buffer [PBS/DMSO (2.5%)/TWEEN-20 (2.5%)]; • g) Incubate cells with 0.3% Triton-X 100 diluted in PBS for 3 minutes; • h) Wash with PBS; • i) Apply DAPI 1/5000 for 5 minutes in dark condition; • j) Rinse samples with dH2O for 30 seconds; • k) Cover section using a mounting medium for immunofluorescence.

[2] = tested on: Li-Fraumeni-p21^WAF1/Cip1 Tet-ON cells; experiment: as above; type: cell-based
Experimental: as §1, §2

[3] = tested on: senescent cells in human tissue sections (irradiated laryngeal, chemotherapy-treated breast, aged liver); experiment: Detection of senescent cells in tissue sections by fluorescent microscopy, human clinical settings; conditions: chemotherapy-treated breast tissues, liver specimens from aged individuals versus respective controls, FFPE sections
From the text: as §1, with “tissue sections by” for “cell spreads using”, “microscopy.” for “microscopy (FIG. 1).”
(§3) Tissue sections were obtained from paraffin embedded, formalin fixed of: (A) irradiated human laryngeal tumors, (B) chemotherapy-treated breast tissues, (C) liver specimens from aged versus young individuals, (D) K-ras^V12 induced lung adenomas, (E) Palbociclib-treated human melanoma xenografts, and (F) Bleomycin-induced lung fibrosis mouse model, with established presence of senescent cells. Subsequently, they were immobilized on glass microscopy slides by standard procedures and processed as follows: • i. Section deparaffinization through a 30 minutes incubation at 60° C., followed by washing in xylene for 15 minutes at room temperature. • ii. Gradual rehydration of biopsy material, usually fixed tissues, in solutions of descending concentration of ethanol (100%, 96%, 80%, 70%, 50% v/v) for 5 minutes each step and finally in Phosphate-buffered saline (PBS) buffering solution; • iii. Antigen retrieval by heating in citrate acid solution 10 mM, pH=6. […]

[4] = tested on: senescent cells in tissue sections of murine models (K-ras^V12-induced lung adenomas, palbociclib-treated human melanoma xenografts, bleomycin-induced lung …); experiment: Detection of senescent cells in tissue sections by fluorescent microscopy, murine models; conditions: bleomycin-treated lungs
From the text: as §1, with “tissue sections by” for “cell spreads using”, “microscopy.” for “microscopy (FIG. 1).”
as §3

HBEC CDC6 Tet-ON cells [5] = experiment: Detection by flow cytometry of senescent cells in cell culture; type: cell-based; conditions: with or without Doxycycline; anti-Ki67-Pacific blue only (HBEC cells do not express p16^INK4A)
Experimental: as §1, with “senescent cultured” for “senescent”, “by flow cytometry.” for “in cell spreads using fluorescent microscopy (FIG. 1).”
(§4) Li-Fraumeni-p21^WAF1/Cip1 or HBEC-CDC6 Tet-ON cellular systems were grown in culture without or with Doxycyclin to induce senescence. Subsequently cells were treated and assessed as follows: • 1. Harvest cells from culture. • 2. Centrifuge at 1200 rpm for 5 min at RT. • 3. Wash ×1 in 5 ml PBS at RT. • 4. Resuspend cell pellet in 4% PFA and incubate them for 15 min in RT (fixation) • 5. Centrifuge at 1200 rpm for 5 min at RT. • 6. Resuspend cell pellet in 0.3% Triton-X/PBS and incubate it for 15 min at RT. • 7. Wash ×1 in 2 ml PBS at RT • 8. Centrifuge at 1200 rpm for 5 min at RT. • 9. Incubate samples with 100 μl of GLF16 for 8 min under gently shaking in dark condition • 10. Add 2 ml of wash buffer [PBS/DMSO (2.5%)/TWEEN-20 (2.5%)] and centrifuge at 1200 rpm for 5 min at RT (×2) • 11. Incubate with primary-conjugated antibody/ies for 20 min RT • 12. Centrifuge at 1200 rpm for 5 min at RT (×2) • 13. Apply flow cytometry buffer (PBS/5% FBS)

[6] = tested on: Li-Fraumeni-p21^WAF1/Cip1 Tet-ON cells; experiment: as above; type: cell-based; conditions: with or without Doxycycline; anti-Ki67-Pacific blue and anti-p16^INK4A-APC; 3 independent experiments
Experimental: as §1, with “senescent cultured” for “senescent”, “by flow cytometry.” for “in cell spreads using fluorescent microscopy (FIG. 1).”
as §4

## CCN1/C(=C/C=C2\CCCC(/C=C/C3=[N+](CC)c4ccccc4C3(C)C)=C2NCCCCNC(=O)CCC(=O)OCC2(C)Nc3cccc4c(/N=N/c5ccc(/N=N/c6ccccc6)c6ccccc56)ccc(c34)N2)C(C)(C)c2ccccc21 (stereo not shown) [GLF16, 1-ethyl-2-((E)-2-((E)-3-((E)-2-(1-ethyl-3,3-dimethylindolin-2-ylidene)ethylidene)-2-((4-(4-((2-methyl-6-((E)-(4-((E)-phenyldiazenyl)naphthalen-1-yl)diazenyl)-2,3-dihydro-1H-perimidin-2-yl)methoxy)-4-oxobutanamido)butyl)amino)cyclohex-1-en-1-yl)vinyl)-3,3-dimethyl-3H-indol-1-ium iodide]
HBEC CDC6 Tet-ON cells [1]; (+) Doxycycline, FIG. 2 panels F, G
  specificity: co-staining with p21^WAF1/Cip and Ki67: concordant staining presence of the senescence associated factors
HBEC CDC6 Tet-ON cells [1]; FIG. 2 panel E, (-) Doxycycline as negative control
  staining of senescent cells: successful application
[2]; (+) Doxycycline, FIG. 2 panels B, C
  specificity: co-staining with p16^INK4A and Ki67: concordant staining presence of the senescence associated factors
[2]; FIG. 2C
  co-staining with the proliferative marker Ki67: inverse relationship between GLF16 and Ki67 positivity
[2]; cells treated or not with Doxycycline for 6-8 days, fixed, permeabilized, confocal microscope
  GLF16 staining signal: intense cytoplasmic signal (corresponding to lipofuscin aggregates) abundant in senescent cells and entirely absent in untreated ones
[3]
  GLF16-positive cells in tissue: abundant in GLF16-positive cells while in respective controls these positive cells were totally absent
[4]; FIG. 3 G-I, tissue per panel not stated except H
  concurrent staining with Ki67, p21^WAF1/Cip1 and p16^INK4A: coincided with p16^INKA4 or p21^WAF1/Cip1 but not with Ki67
[4]; FIG. 3H
  GLF16 (lipofuscin) positive macrophages: positive macrophages in bleomycin-treated lungs are also evident
HBEC CDC6 Tet-ON cells [5]
  co-detection of GLF16 with senescence markers in gated GLF16 (+) and (-) cells: co-detection of GLF16 and senescence markers (p16^INK4A and absence of Ki67) in the senescent population (induced cells)
[6]
  co-detection of GLF16 with senescence markers in gated GLF16 (+) and (-) cells: co-detection of GLF16 and senescence markers (p16^INK4A and absence of Ki67) in the senescent population (induced cells)
